Reference: patent US20080207614A1, “QUINAZOLINE DERIVATIVES FOR THE TREATMENT AND PREVENTION OF DIABETES AND OBESITY” (SK CHEMICALS CO., LTD., priority 2004, published 2008)

Tested on: C2C12 muscle cells
Assay: Analysis of glucose absorption (2-deoxyglucose) in differentiated C2C12 muscle cells
Type: cell-based
Conditions: test materials 10 μM, times relative to control group
Method: C2C12 muscle cells were cultured in DMEM (Dulbecco's modified Eagle's medium) containing 10% bovine calf serum. When the cell density increased to about 85 to 90%, the culture medium was replaced with 1% bovine calf serum and cell differentiation was induced for 6 days. Completely differentiated cells were cultured for 3 hours with Krebs-Ringer buffer (KRB) containing 5 mM glucose. The test materials were added at a concentration of 10 μM. 30 minutes later, 0.2 μCi 2-deoxyglucose was added. KRB was removed 20 minutes later and the cells were washed for 3 times with cold PBS. The cells were lysed with 0.5N NaOH and counted using a radioactive counter.

Row | SMILES | Glucose absorption
1 | Fc1cccc(CNc2nc(-c3cccnc3)nc3ccccc23)c1 [Compound 243, (3-Fluorobenzyl)-(2-pyridino-3-ylquinazolino-4-yl)-amine] | 1.4
2 | Fc1cccc(CCNc2nc(C3CCCCC3)nc3ccccc23)c1 [Compound 208, (2-Cyclohexylquinazolino-4-yl)-[2-(3-fluorophenyl)-ethyl]-amine] | 2.0
3 | c1ccc(-c2nc(NC3CCCCC3)c3ccccc3n2)cc1 [Compound 51, Cyclohexyl-(2-phenylquinazolino-4-yl)-amine] | 1.0
4 | COc1ccc(CNc2nc(-c3cccnc3)nc3ccccc23)cc1 [Compound 237, (4-Methoxybenzyl)-(2-pyridino-3-ylquinazolino-4-yl)-amine] | 0.9
5 | c1ccc(CCCCNc2nc(-c3ccccc3)nc3ccccc23)cc1 [Compound 52, (4-Phenylbutyl)-(2-phenylquinazolino-4-yl)-amine] | 1.3
6 | CCSc1nc(NCCOC)c2ccccc2n1 [Compound 34, (2-Ethylsulfanylquinazolino-4-yl)-(2-methoxy-ethyl)-amine] | 1.3
7 | COc1ccccc1Nc1nc(-c2ccccc2)nc2ccccc12 [Compound 77, (2-Methoxyphenyl)-(2-phenylquinazolino-4-yl)-amine] | 1.4
8 | c1cncc(-c2nc(NCc3ccc4c(c3)OCO4)c3ccccc3n2)c1 [Compound 242, Benzo[1,3]dioxol-5-ylmethyl-(2-pyridino-3-ylquinazolino-4-yl)-amine] | 0.9
9 | CC(C)(C)c1nc(NCc2cccc3ccccc23)c2ccccc2n1 [Compound 193, (2-tert-Butylquinazolino-4-yl)-naphthaleno-1-ylmethylamine] | 1.3
10 | CCSc1nc(NCc2ccccc2F)c2ccccc2n1 [Compound 39, (2-Ethylsulfanylquinazolino-4-yl)-(2-fluorobenzyl)-amine] | 0.9
11 | Clc1ccc(CCNc2nc(-c3ccccc3)nc3ccccc23)c(Cl)c1 [Compound 127, [2-(2,4-Dichlorophenyl)-ethyl]-(2-phenylquinazolino-4-yl)-amine] | 1.4
12 | FC(F)(F)c1cccc(CNc2nc(-c3cccnc3)nc3ccccc23)c1 [Compound 238, (2-Pyridino-3-ylquinazolino-4-yl)-(3-trifluoromethylbenzyl)-amine] | 1.0
13 | Oc1ccccc1CCNc1nc(-c2ccccc2)nc2ccccc12 [Compound 152, 2-[2-(2-Phenylquinazolino-4-ylamino)-ethyl]-phenol] | 2.4
14 | c1ccc(Nc2nc(-c3ccccc3)nc3ccccc23)cc1 [Compound 69, Phenyl-(2-phenylquinazolino-4-yl)-amine] | 1.0
15 | Clc1ccc(-c2nc(NCCc3ccccc3)c3ccccc3n2)cc1 [Compound 263, [2-(4-Chlorophenyl)-quinazolino-4-yl]-phenethylamine] | 1.1
16 | COc1ccc(OC)c(CNc2nc(Cc3ccccc3)nc3ccccc23)c1 [Compound 334, (2-Benzylquinazolino-4-yl)-(2,5-dimethoxybenzyl)-amine] | 1.1
17 | c1ccc(CNc2nc(-c3ccccn3)nc3ccccc23)cc1 [Compound 223, Benzyl-(2-pyridino-2-ylquinazolino-4-yl)-amine] | 1.7
18 | Fc1cccc(CCNc2nc(-c3cccnc3)nc3ccccc23)c1 [Compound 244, [2-(3-Fluorophenyl)-ethyl]-(2-pyridino-3-ylquinazolino-4-yl)-amine] | 0.4
19 | Cc1ccc(Nc2nc(-c3ccccc3)nc3ccccc23)c(C)c1 [Compound 73, (2,4-Dimethyl-phenyl)-(2-phenylquinazolino-4-yl)-amine] | 1.0
20 | C=CCNc1nc(SCC)nc2ccccc12 [Compound 42, Allyl-(2-ethylsulfanylquinazolino-4-yl)-amine] | 1.1
21 | Fc1cccc(CNc2nc(C3CCCCC3)nc3ccccc23)c1 [Compound 207, (2-Cyclohexylquinazolino-4-yl)-(3-fluorobenzyl)-amine] | 2.0
